Test results: patent US20230099344A1, “COMPOUNDS AND METHODS FOR THE TARGETED DEGRADATION OF IRAK-4” (Arvinas Operations, Inc., priority 2021, published 2023)

Tests used:
Assay type in all cases: cell-based
IL6 [1] = assay: LPS stimulated IL6 inhibition assay in PBMC; conditions: human PBMCs, LPS stimulation, compound overnight, IL6 by MSD after 24 hrs; for Dmax: read-out: LPS Stim IL6 inhibition Dmax; for IC50: read-out: LPS stim IL6 inhibition IC50
Protocol: (§1) IL-1β, LPS, or R848 Stimulated IL6 Inhibition and IL-1β Stimulated IL8 Inhibition Assay
(§2) Human PBMC cells were seeded at 2.0×10^6 cells/mL, treated with compound overnight, and dosed with the EC50 concentration of each stimulant (either IL-1B. LPS, or R848) was determined for each donor. After 24 hrs, media was collected and analyzed by MSD for IL6 and/or IL8 levels.

IL6 [2] = assay: R848 stimulated IL6 inhibition assay in PBMC; conditions: human PBMCs, R848 stimulation, compound overnight, IL6 by MSD after 24 hrs; for Dmax: Homo sapiens, 24 h, read-out: R848 stim IL6 inhibition Dmax; for IC50: read-out: R848 stim IL6 inhibition IC50
Protocol: as §1, §2

IRAK-4 = target: T1, IRAK-4 (Homo sapiens, UniProt Q9NWZ3); assay: IRAK-4 ELISA, PBMC degradation; parameters: endogenous in cells; host or cells: PBMC; conditions: treated overnight
T1 sequence (Q9NWZ3 1-460): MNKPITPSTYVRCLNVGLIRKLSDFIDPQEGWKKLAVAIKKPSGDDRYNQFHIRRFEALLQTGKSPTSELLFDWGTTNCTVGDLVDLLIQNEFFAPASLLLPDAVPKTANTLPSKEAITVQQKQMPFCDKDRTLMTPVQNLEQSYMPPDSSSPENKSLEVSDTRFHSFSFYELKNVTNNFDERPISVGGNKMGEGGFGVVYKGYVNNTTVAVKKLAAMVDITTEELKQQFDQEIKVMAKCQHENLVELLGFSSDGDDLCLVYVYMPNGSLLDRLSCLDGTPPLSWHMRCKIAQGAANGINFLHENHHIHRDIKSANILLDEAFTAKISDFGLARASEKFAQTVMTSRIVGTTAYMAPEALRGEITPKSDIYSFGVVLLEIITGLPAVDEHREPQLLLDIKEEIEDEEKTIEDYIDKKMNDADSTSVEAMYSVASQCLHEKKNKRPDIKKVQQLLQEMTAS
Outline: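 OCI-Ly10 cells (seeded at 1×10^6/ml) or human PBMC (seeded at 2×10^6/ml) were treated with compound on the day of seeding and incubated overnight. Lysates were then assayed for remaining IRAK-4 protein by sandwich ELISA with a matched antibody pair.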

Row | IC50 (IL6 [1]; Homo sapiens, PBMC, 24 h) [nM] | IC50 (IL6 [2]; PBMC) [nM] | DC50 (IRAK-4) [nM] | Dmax (IRAK-4) [%] | PBMC DC90 (IRAK-4) | IC50 (IL6 [1]) [nM] | IC50 (IL6 [2]) [nM] | SMILES | Dmax (IL6 [1]; Homo sapiens, PBMC, 24 h) [%] | Dmax (IL6 [2]; PBMC) [%] | LPS Stim IL6 inhibition Dmax (IL6 [1]) | R848 stim IL6 inhibition Dmax (IL6 [2])
1 | ≥ 100 | 50 to 100 | ≥ 10 |  | D (D represents a DC90 value ≥50 nM) |  |  | CC(C)Oc1cc2c(cc1NC(=O)c1cnn3cccnc13)CN(C1CCN(CC3CCN(c4ccc5c(c4)C(=O)N(C4CCC(=O)NC4=O)C5)CC3)CC1)C2=O (stereo not drawn) [Example 105] | 70 to 80 | 80 to 90 |  | 
2 | < 10 | 10 to 50 | 1 to 5 | 70 to 80 | A (A represents a DC90 value <10.0 nM) |  |  | O=C1CCC(N2C(=O)c3cccc(N4CC5(CCCN(C6CCC(n7cc8cc(NC(=O)c9cnn%10cccnc9%10)c(OCC9CC9)cc8n7)CC6)C5)C4)c3C2=O)C(=O)N1 (stereo not drawn) [Example 419] | 70 to 80 | 80 to 90 |  | 
3 | < 10 | < 10 | < 1 | ≥ 90 | A (A represents a DC90 value <10.0 nM) |  |  | CN(C1CN(c2ccc3c(c2F)CN(C2CCC(=O)NC2=O)C3=O)C1)[C@H]1CC[C@H](n2cc3cc(NC(=O)c4cnn5cccnc45)c(OCC4CC4)cc3n2)CC1 (stereo partly drawn) [Example 361] | 80 to 90 | ≥ 90 |  | 
4 | 10 to 50 | 10 to 50 | 1 to 5 | ≥ 90 | A (A represents a DC90 value <10.0 nM) |  |  | CCN(C1CN(c2ccc(C(=O)NC3CCC(=O)NC3=O)c(F)c2)C1)[C@H]1CC[C@H](n2cc3cc(NC(=O)c4cnn5cccnc45)c(OCC4CC4)cc3n2)CC1 (stereo partly drawn) [Example 369] | < 70 | ≥ 90 |  | 
5 | 10 to 50 | 10 to 50 | 1 to 5 | ≥ 90 | A (A represents a DC90 value <10.0 nM) |  |  | O=C1CCC(N2C(=O)c3ccc(N4CCC(CN5CCC(N6Cc7cc(NC(=O)c8cnn9cccnc89)c(N8CCN(CC(F)F)CC8)cc7C6=O)CC5)CC4)cc3C2=O)C(=O)N1 (stereo not drawn) [Example 52] | 80 to 90 | 80 to 90 |  | 
6 | ≥ 100 | ≥ 100 | ≥ 10 |  | D (D represents a DC90 value ≥50 nM) |  |  | CC(C)Oc1cc2nn(C3CCN(CC4CN(c5ccc(F)c(C(=O)NC6CCC(=O)NC6=O)c5)C4)CC3)cc2cc1NC(=O)c1cnn2cccnc12 (stereo not drawn) [Example 307] |  | 80 to 90 |  | 
7 | 10 to 50 | 10 to 50 | < 1 | ≥ 90 | A (A represents a DC90 value <10.0 nM) |  |  | O=C1CCC(N2Cc3cc(N4CCC(CN5CCC(N6Cc7cc(NC(=O)c8cnn9cccnc89)c(N8CCN(CC(F)F)CC8)cc7C6=O)CC5)CC4)ccc3C2=O)C(=O)N1 (stereo not drawn) [Example 50] | < 70 | ≥ 90 |  | 
8 | < 10 | < 10 | < 1 | 70 to 80 | A (A represents a DC90 value <10.0 nM) |  |  | CN(CC1CCN(c2ccc3c(c2)C(=O)N(C2CCC(=O)NC2=O)C3=O)CC1)[C@H]1CC[C@H](n2cc3cc(NC(=O)c4cnn5cccnc45)c(OCC(F)F)cc3n2)CC1 (stereo partly drawn) [Example 357] | ≥ 90 | ≥ 90 |  | 
9 | 10 to 50 | 10 to 50 | 1 to 5 | ≥ 90 | A (A represents a DC90 value <10.0 nM) |  |  | O=C1CCC(N2C(=O)c3ccc(N4CCC(CN5CCC(n6cc7cc(NC(=O)c8cnn9cccnc89)c(N8CCN(CC(F)F)CC8)cc7n6)CC5)CC4)cc3C2=O)C(=O)N1 (stereo not drawn) [Example 159] | 70 to 80 | ≥ 90 |  | 
10 | 10 to 50 | 10 to 50 | ≥ 10 | 80 to 90 | D (D represents a DC90 value ≥50 nM) |  |  | O=C1CCC(N2Cc3c(cccc3N3CC4(CCCN(C5CCC(n6cc7cc(NC(=O)c8cnn9cccnc89)c(OCC8CC8)cc7n6)CC5)C4)C3)C2=O)C(=O)N1 (stereo not drawn) [Example 367] | 80 to 90 | ≥ 90 |  | 
11 | 10 to 50 | < 10 | < 1 | 80 to 90 | A (A represents a DC90 value <10.0 nM) |  |  | O=C1CCC(N2C(=O)c3ccc(N4CCCC5(C4)CN([C@H]4CC[C@H](n6cc7cc(NC(=O)c8cnn9cccnc89)c(OCC8CC8)cc7n6)CC4)C5)cc3C2=O)C(=O)N1 (stereo partly drawn) [Example 418] | 80 to 90 | ≥ 90 |  | 
12 | 10 to 50 | 10 to 50 | < 1 | ≥ 90 | A (A represents a DC90 value <10.0 nM) |  |  | CC(C)(C1CN(c2ccc3c(c2)C(=O)N(C2CCC(=O)NC2=O)C3=O)C1)N1CCC(n2cc3cc(NC(=O)c4cnn5cccnc45)c(OCC4CC4)cc3n2)CC1 (stereo not drawn) [Example 256] | < 70 | 80 to 90 |  | 
13 | ≥ 100 | 50 to 100 | 1 to 5 | ≥ 90 | A (A represents a DC90 value <10.0 nM) |  |  | O=C1CCC(NC(=O)c2ccc(N3CCC(CN4CCC(N5Cc6cc(NC(=O)c7cnn8cccnc78)c(N7CCC(N8CCC8)CC7)cc6C5=O)CC4)CC3)cc2F)C(=O)N1 (stereo not drawn) [Example 310] | 70 to 80 | ≥ 90 |  | 
14 | ≥ 100 | 10 to 50 | 1 to 5 | ≥ 90 | A (A represents a DC90 value <10.0 nM) |  |  | O=C1CCC(N2C(=O)c3ccc(N4CCC5(CC4)CN(CCN4CCC(n6cc7cc(NC(=O)c8cnn9cccnc89)c(OCC8CC8)cc7n6)CC4)C5)cc3C2=O)C(=O)N1 (stereo not drawn) [Example 249] | < 70 | 80 to 90 |  | 

Row | SMILES | IC50 (IL6 [1]; Homo sapiens, PBMC, 24 h) [nM] | IC50 (IL6 [2]; PBMC) [nM] | DC50 (IRAK-4) [nM] | Dmax (IRAK-4) [%] | PBMC DC90 (IRAK-4) | IC50 (IL6 [1]) [nM] | IC50 (IL6 [2]) [nM] | Dmax (IL6 [1]; Homo sapiens, PBMC, 24 h) [%] | Dmax (IL6 [2]; PBMC) [%] | LPS Stim IL6 inhibition Dmax (IL6 [1]) | R848 stim IL6 inhibition Dmax (IL6 [2])
15 | O=C1CCC(N2C(=O)c3ccc(N4CCC(CN5CCC(N6Cc7cc(NC(=O)c8cnn9cccnc89)c(OCC(F)F)cc7C6=O)CC5)CC4)cc3C2=O)C(=O)N1 (stereo not drawn) [Example 42] | 50 to 100 | < 10 | 1 to 5 | ≥ 90 | B (B represents a DC90 value ≥10.0 nM and <25.0 nM) |  |  | < 70 | < 70 |  | 
16 | O=C1CCC(N2C(=O)c3ccc(N4CCN(C[C@H]5CC[C@H](N6Cc7cc(NC(=O)c8cnn9cccnc89)c(N8CCN(CC(F)F)CC8)cc7C6=O)CC5)CC4)cc3C2=O)C(=O)N1 (stereo partly drawn) [371′] | 10 to 50 | 10 to 50 | 1 to 5 | ≥ 90 | B (B represents a DC90 value ≥10.0 nM and <25.0 nM) |  |  | < 70 | ≥ 90 |  | 
17 | O=C1CCC(N2C(=O)c3ccc(N4CCC5(CC4)CN([C@H]4CC[C@H](n6cc7cc(NC(=O)c8cnn9cccnc89)c(OCC8CC8)cc7n6)CC4)C5)cc3C2=O)C(=O)N1 (stereo partly drawn) [Example 353] | 10 to 50 | 10 to 50 | 1 to 5 | 80 to 90 | B (B represents a DC90 value ≥10.0 nM and <25.0 nM) |  |  | 70 to 80 | ≥ 90 |  | 
18 | O=C1CCC(N2C(=O)c3ccc(N4CC[C@H](O[C@H]5CC[C@@H](n6cc7cc(NC(=O)c8cnn9cccnc89)c(OCC8CC8)cc7n6)CC5)C4)cc3C2=O)C(=O)N1 (stereo partly drawn) [Example 428] |  |  | 1 to 5 | ≥ 90 | B (B represents a DC90 value ≥10.0 nM and <25.0 nM) | 10 to 50 | 10 to 50 |  |  | D (D represents a Ymax value <70) | A (A represents a Ymax value ≥90)
